Consider six compounds from US8609652B2, “Method of administering a methylene blue-curcumin analog for the treatment of alzheimer's disease” (DePuy Synthes Products, LLC, priority 2009, dated 2013).

In one series the test system is PC12 cells. Kind of series: relative potency versus curcumin in in vitro protection of PC12 cells against beta amyloid insult. Type of series: cell-based. An excerpt: Each of the parent compounds may be obtained by the methods disclosed in Park.
It is further observed that both of these qualities can be placed into the same molecule (35).

For another series, the system named is PC12 cells, βA (25-35). Conditions: cited from earlier work.
Another series deals with PC12 cells, βA (1-42). The settings on record: cited from earlier work.
A further series has as its system AD patients' macrophages. Conditions: cited from earlier work.
For the next series, the system named is beta-amyloid aggregation. The settings on record: cited from earlier work.
The conditions of series [1]: iontophoresis of 100 mg for 20 minutes; cited from earlier work.
In series [2] the test system is neuronal mitochondrial complex IV. The settings on record: cited from earlier work.
The subject of series [3] is rate of cognitive decline. Conditions: 19 month period; cited from earlier work.
The next series deals with tau filaments. Conditions: cited from earlier work.
For series [4] the following is noted: 10 mg/ml patch, 0.1 mA/cm^2 current density; cited from earlier work.
For series [5] the following is noted: cited from earlier work.
A further series has as its system rat hippocampal neurons. Conditions: cited from earlier work.
In series [6] the test system is cultured hippocampal cells. The settings on record: cited from earlier work.
The conditions of series [7]: cited from earlier work. The source holds these as a separate data set.
The conditions of series [8]: cited from earlier work. The source holds these as a separate data set.
In series [9] the target is plasma membrane binding sites for resveratrol. Conditions: rat brain; cited from earlier work.

pKi: −log10 of the molar value.

On to `O=C(C=Cc1ccc(O)cc1)CC(=O)C=Cc1ccc(O)cc1` [compound 33, 1,7-bis(4-hydroxyphenyl)-1,6-heptadiene-3,5-dione], for which the “fold more potent than curcumin as neuroprotectant against beta amyloid” value in the series with PC12 cells (analysis of the Kim data) was approximately 2 fold; with PC12 cells (analysis of the Park data) it was 3 fold. Moreover, the “anti-BA (25-35) ED50” value in the series with PC12 cells, βA (25-35) (Kim) is 3.5 ± 0.2 µg/mL. Also, the “anti-βA (25-35) ED50” value in the series on PC12 cells, βA (25-35) (Park, concentration required to achieve 50% cell viability) is 2.0 ± 0.6 µg/mL. Moreover, the “anti-BA (1-42) ED50” value in the series with PC12 cells, βA (1-42) (Kim) is 3.0 ± 0.3 µg/mL. Further, in the series with PC12 cells, βA (1-42) (Park), the “anti-βA (1-42) ED50” value was 3.5 ± 0.7 µg/mL. Moreover, in the series with AD patients' macrophages, the optimum concentration was 0.1 µM.

For `NCCc1ccc(O)c(O)c1` [dopamine], the “potency to inhibit beta-amyloid aggregation relative to curcumin” value in the series with beta-amyloid aggregation is on record as “about 10 times”.

In the case of `O=C(OCCOCCO)c1ccccc1Nc1cccc(C(F)(F)F)c1` [etofenamate], the serum concentration entry in series [1] is recorded as “about 200 ng/ml”.

As to `CN(C)c1ccc2nc3ccc(=[N+](C)C)cc-3sc2c1` [methylene blue], in series [2], the “enhancement of cellular oxygen consumption” value is reported as 37-70% and the “increase of neuronal mitochondrial complex IV” value is given as 30%. For the same compound, the “decrease in the rate of cognitive decline as compared to controls” value in series [3] is given as 81%. Moreover, the “formation of tau filaments” value in the series on tau filaments is listed as “inhibits the formation of tau filaments”.

For `CC(C)NCC(O)COc1cccc2ccccc12` (centres unmarked) [propranolol], in [4], the Cmax serum concentration entry was “about 200 ng/ml”.

As for `Oc1ccc(C=Cc2cc(O)cc(O)c2)cc1` [resveratrol], the “octanol/water partition coefficient log P” value in series [5] is reported as “about 3.14”. Also, in the series with rat hippocampal neurons, the “concentration with neuroprotective effect against beta amyloid-induced neurotoxicity” value was 20 µM. Further, in [6], the “concentration protecting against nitric oxide related neurotoxicity” value is 5 to 25 µM. In series [7], the oral bioavailability entry was “about zero”. Moreover, in [8], the solubility in water was less than 10 mM. The pKi – broadly, the negative decadic logarithm of the Ki, by convention in mol/L – in series [9] was 6.99.
